Laboratory results: patent US9029359B2, “Heteroaryl Btk inhibitors” (Biogen Idec MA, Inc., priority 2009, dated 2015)

Biological target: T1, BTK (Homo sapiens, UniProt Q06187)
T1 construct: purchased Upstate 14-552
Assay: In vitro BTK kinase assay: BTK-POLYGAT-LS ASSAY
Assay type: biochemical
Conditions: ATP 10 uM
Outline: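 BTK phosphorylation of polyGAT (100 nM final) with ATP at 10 μM final, 10 mM Tris-HCl pH 7.5 kinase buffer, quenched by EDTA after 30 min. Potency given as IC50.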

T1 sequence (Q06187 whole entry): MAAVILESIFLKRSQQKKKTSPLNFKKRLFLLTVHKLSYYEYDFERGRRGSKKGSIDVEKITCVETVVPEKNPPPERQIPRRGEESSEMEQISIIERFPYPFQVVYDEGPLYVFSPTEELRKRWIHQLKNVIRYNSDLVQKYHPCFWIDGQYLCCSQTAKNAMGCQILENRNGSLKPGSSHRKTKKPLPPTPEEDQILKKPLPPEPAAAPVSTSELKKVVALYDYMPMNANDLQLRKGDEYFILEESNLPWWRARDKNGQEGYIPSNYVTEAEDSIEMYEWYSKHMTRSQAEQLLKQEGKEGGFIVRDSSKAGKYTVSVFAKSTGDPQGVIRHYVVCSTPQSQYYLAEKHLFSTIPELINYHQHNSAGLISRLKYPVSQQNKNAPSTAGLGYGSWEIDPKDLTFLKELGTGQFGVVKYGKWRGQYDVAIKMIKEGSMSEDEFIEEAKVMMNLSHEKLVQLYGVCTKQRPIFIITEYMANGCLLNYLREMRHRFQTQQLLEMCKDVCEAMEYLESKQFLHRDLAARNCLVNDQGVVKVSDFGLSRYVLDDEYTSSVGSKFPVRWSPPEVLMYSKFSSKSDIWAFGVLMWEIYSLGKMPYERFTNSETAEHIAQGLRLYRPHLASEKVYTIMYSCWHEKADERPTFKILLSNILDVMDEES

O=C(N[C@@H]1CCCN(c2ncnc3[nH]ncc23)C1)[C@H](Nc1cccc(Cl)c1)C1CC1 [Example 231]
IC50: < 100 nM

C[C@@H](Nc1cc(F)cc(Cl)c1)C(=O)N[C@@H]1CCCN(c2ncnc3[nH]ccc23)C1 [Example 232]
IC50: < 100 nM

C[C@H](O)[C@@H](Nc1cccc(Cl)c1)C(=O)N[C@@H]1CCCN(c2ncnc3[nH]ccc23)C1 [Example 233]
IC50: < 100 nM

CC(C)c1ccccc1N[C@@H](C(=O)N[C@@H]1CCCN(c2ncnc3[nH]ncc23)C1)C1CC1 [Example 234]
IC50: 100 to 999 nM

O=C(CNc1ccccc1S(=O)(=O)c1ccc(C(F)(F)F)cc1)N[C@@H]1CCCN(c2ncnc3[nH]ncc23)C1 [Example 235]
IC50: < 100 nM

O=C(CNc1ccccc1Cl)N[C@@H]1CCCN(c2ncnc3[nH]ccc23)C1 [Example 236]
IC50: < 100 nM

Cc1cccc(NCC(=O)N[C@@H]2CCCN(c3ncnc4[nH]ccc34)C2)c1 [Example 237]
IC50: 100 to 999 nM

C[C@@H](Nc1cccc(Cl)c1)C(=O)N[C@@H]1CCCN(c2ncnc3[nH]ccc23)C1 [Example 238]
IC50: < 100 nM

CC(C)c1ccccc1N[C@@H](C(=O)N[C@@H]1CCCN(c2ncnc3[nH]ccc23)C1)[C@H](C)O [Example 239]
IC50: 100 to 999 nM

CN(C1CCCCC1)S(=O)(=O)c1ccccc1NCC(=O)N[C@@H]1CCCN(c2ncnc3[nH]ncc23)C1 [Example 240]
IC50: < 100 nM

O=C(CNc1ccccc1Oc1ccccc1)N[C@@H]1CCCN(c2ncnc3[nH]ccc23)C1 [Example 241]
IC50: < 100 nM

O=C(CNc1ccccc1S(=O)(=O)N1CCOCC1)N[C@@H]1CCCN(c2ncnc3[nH]ncc23)C1 [Example 242]
IC50: < 100 nM

O=C(CNc1ccccc1S(=O)(=O)N1CCOCC1)N[C@@H]1CCCN(c2ncnc3[nH]ccc23)C1 [Example 243]
IC50: < 100 nM

O=C(CNc1ccccc1OC1CCCC1)N[C@@H]1CCCN(c2ncnc3[nH]ncc23)C1 [Example 245]
IC50: < 100 nM

CN(C)S(=O)(=O)c1ccc(F)cc1NCC(=O)N[C@@H]1CCCN(c2ncnc3[nH]ccc23)C1 [Example 246]
IC50: 100 to 999 nM

O=C(CNc1cccc(Cl)c1)N[C@@H]1CCCN(c2ncnc3[nH]ncc23)C1 [Example 247]
IC50: < 100 nM

CC(C)Oc1ccccc1NCC(=O)N[C@@H]1CCCN(c2ncnc3[nH]ccc23)C1 [Example 248]
IC50: 100 to 999 nM

CC[C@@H](Nc1ccccc1C(C)C)C(=O)N[C@@H]1CCCN(c2ncnc3[nH]ccc23)C1 [Example 249]
IC50: 100 to 999 nM

CC1(C)CCN(S(=O)(=O)c2ccccc2NCC(=O)N[C@@H]2CCCN(c3ncnc4[nH]ccc34)C2)CC1 [Example 250]
IC50: < 100 nM

O=C(CNc1ccccc1OC1CCCCCC1)N[C@@H]1CCCN(c2ncnc3[nH]ccc23)C1 [Example 251]
IC50: < 100 nM

O=C(CNc1ccccc1C(=O)N1CCCCC1)N[C@@H]1CCCN(c2ncnc3[nH]ccc23)C1 [Example 253]
IC50: 100 to 999 nM

O=C(CNc1cccc2c1CCCC2)N[C@@H]1CCCN(c2ncnc3[nH]ccc23)C1 [Example 254]
IC50: < 100 nM

CC(C)(C)[C@@H](Nc1cccc(Cl)c1)C(=O)N[C@@H]1CCCN(c2ncnc3[nH]ccc23)C1 [Example 255]
IC50: < 100 nM

CC(C)(C)C1CCN(S(=O)(=O)c2ccccc2NCC(=O)N[C@@H]2CCCN(c3ncnc4[nH]ncc34)C2)CC1 [Example 256]
IC50: < 100 nM

CCC[C@@H](Nc1ccccc1)C(=O)N[C@@H]1CCCN(c2ncnc3[nH]ccc23)C1 [Example 257]
IC50: 100 to 999 nM

Cc1ccc(NCC(=O)N[C@@H]2CCCN(c3ncnc4[nH]ccc34)C2)cc1C [Example 258]
IC50: 100 to 999 nM

CCCc1ccccc1NCC(=O)N[C@@H]1CCCN(c2ncnc3[nH]ccc23)C1 [Example 259]
IC50: < 100 nM

Cc1c(Cl)cccc1NCC(=O)N[C@@H]1CCCN(c2ncnc3[nH]ccc23)C1 [Example 261]
IC50: 100 to 999 nM

CCc1cccc(NCC(=O)N[C@@H]2CCCN(c3ncnc4[nH]ccc34)C2)c1 [Example 262]
IC50: < 100 nM

CC(C)c1ccccc1N[C@@H](C(=O)N[C@@H]1CCCN(c2ncnc3[nH]ccc23)C1)C(C)C [Example 263]
IC50: 100 to 999 nM

O=C(CNc1cc(F)cc(C(F)(F)F)c1)N[C@@H]1CCCN(c2ncnc3[nH]ccc23)C1 [Example 264]
IC50: < 100 nM

CC(C)(C)C1CCN(S(=O)(=O)c2ccccc2NCC(=O)N[C@@H]2CCCN(c3ncnc4[nH]ccc34)C2)CC1 [Example 265]
IC50: < 100 nM

O=C(CNc1ccccc1OC1CCCCC1)N[C@@H]1CCCN(c2ncnc3[nH]ccc23)C1 [Example 266]
IC50: < 100 nM

Cc1c(F)cccc1NCC(=O)N[C@@H]1CCCN(c2ncnc3[nH]ccc23)C1 [Example 267]
IC50: 100 to 999 nM

Cc1ccccc1NCC(=O)N[C@@H]1CCCN(c2ncnc3[nH]ccc23)C1 [Example 268]
IC50: 100 to 999 nM

CC(C)c1ccccc1N[C@H](C)C(=O)N[C@@H]1CCCN(c2ncnc3[nH]ccc23)C1 [Example 269]
IC50: 100 to 999 nM

COc1ccc(C)cc1NCC(=O)N[C@@H]1CCCN(c2ncnc3[nH]ccc23)C1 [Example 270]
IC50: < 100 nM

Cc1c(Cl)cccc1NCC(=O)N[C@@H]1CCCN(c2ncnc3[nH]ccc23)C1 [Example 272]
IC50: < 100 nM

Cc1ccc(F)cc1NCC(=O)N[C@@H]1CCCN(c2ncnc3[nH]ccc23)C1 [Example 273]
IC50: < 100 nM

O=C(CNc1cccc2ccccc12)N[C@@H]1CCCN(c2ncnc3[nH]ccc23)C1 [Example 274]
IC50: 100 to 999 nM

O=C(CNc1ccc(F)c(I)c1)N[C@@H]1CCCN(c2ncnc3[nH]ccc23)C1 [Example 275]
IC50: 100 to 999 nM

O=C(CNc1ccccc1OCC(F)(F)F)N[C@@H]1CCCN(c2ncnc3[nH]ccc23)C1 [Example 277]
IC50: 100 to 999 nM

O=C(CNc1cc(C(F)(F)F)ccc1N1CCCC1)N[C@@H]1CCCN(c2ncnc3[nH]ccc23)C1 [Example 278]
IC50: 100 to 999 nM

CCC[C@@H](Nc1ccccc1C(C)C)C(=O)N[C@@H]1CCCN(c2ncnc3[nH]ccc23)C1 [Example 279]
IC50: 100 to 999 nM

O=C(CNc1cccc(OC2CCCC2)c1)N[C@@H]1CCCN(c2ncnc3[nH]ccc23)C1 [Example 281]
IC50: 100 to 999 nM

Cc1cc(C)cc(NCC(=O)N[C@@H]2CCCN(c3ncnc4[nH]ccc34)C2)c1 [Example 282]
IC50: 100 to 999 nM

CC(C)CCOc1cccc(NCC(=O)N[C@@H]2CCCN(c3ncnc4[nH]ccc34)C2)c1 [Example 283]
IC50: < 100 nM

CC(C)c1ccccc1N[C@@H](C(=O)N[C@@H]1CCCN(c2ncnc3[nH]ccc23)C1)C1CC1 [Example 284]
IC50: 100 to 999 nM

O=C(CNc1cc(F)c(F)c(F)c1)N[C@@H]1CCCN(c2ncnc3[nH]ccc23)C1 [Example 285]
IC50: 100 to 999 nM

O=C(CNc1ccc(Cl)c(Cl)c1)N[C@@H]1CCCN(c2ncnc3[nH]ccc23)C1 [Example 286]
IC50: 100 to 999 nM

Cc1ccc(NCC(=O)N[C@@H]2CCCN(c3ncnc4[nH]ccc34)C2)cc1Cl [Example 287]
IC50: 100 to 999 nM

CN(C)S(=O)(=O)c1ccccc1NCC(=O)N[C@@H]1CCCN(c2ncnc3[nH]ccc23)C1 [Example 288]
IC50: 100 to 999 nM

Cc1nc(-c2cccc(NCC(=O)N[C@@H]3CCCN(c4ncnc5[nH]ccc45)C3)c2)cs1 [Example 289]
IC50: 100 to 999 nM

O=C(CNc1ccccc1N1CCCCC1)N[C@@H]1CCCN(c2ncnc3[nH]ccc23)C1 [Example 290]
IC50: 100 to 999 nM

Cc1cccc(NCC(=O)N[C@@H]2CCCN(c3ncnc4[nH]ccc34)C2)c1C [Example 292]
IC50: 100 to 999 nM

Cc1ccc(NCC(=O)N[C@@H]2CCCN(c3ncnc4[nH]ccc34)C2)cc1F [Example 293]
IC50: 100 to 999 nM

CC[C@@H](Nc1ccccc1C(C)C)C(=O)N[C@@H]1CCCN(c2ncnc3[nH]ncc23)C1 [Example 294]
IC50: 100 to 999 nM

Cc1ccc(Cl)cc1NCC(=O)N[C@@H]1CCCN(c2ncnc3[nH]ccc23)C1 [Example 295]
IC50: 100 to 999 nM

CC(C)(O)[C@@H](Nc1cc(F)cc(Cl)c1)C(=O)N[C@@H]1CCCN(c2ncnc3[nH]ccc23)C1 [Example 296]
IC50: 100 to 999 nM

N#Cc1cc(Cl)cc(NCC(=O)N[C@@H]2CCCN(c3ncnc4[nH]ccc34)C2)c1 [Example 297]
IC50: 100 to 999 nM

O=C(CNc1cccc(Cl)c1Cl)N[C@@H]1CCCN(c2ncnc3[nH]ccc23)C1 [Example 299]
IC50: 100 to 999 nM

CC(C)c1ccccc1N[C@@H](C(=O)N[C@@H]1CCCN(c2ncnc3[nH]ccc23)C1)C(C)(C)C [Example 300]
IC50: 100 to 999 nM

O=C(CNc1cccc(N2CCCC2)c1)N[C@@H]1CCCN(c2ncnc3[nH]ccc23)C1 [Example 301]
IC50: 100 to 999 nM

Cc1ccc(C)n1-c1cccc(NCC(=O)N[C@@H]2CCCN(c3ncnc4[nH]ccc34)C2)c1 [Example 302]
IC50: 100 to 999 nM

O=C(CNc1cccc(-n2cccc2)c1)N[C@@H]1CCCN(c2ncnc3[nH]ccc23)C1 [Example 303]
IC50: 100 to 999 nM

O=C(CNc1cccc(-c2cn3ccccc3n2)c1)N[C@@H]1CCCN(c2ncnc3[nH]ccc23)C1 [Example 304]
IC50: 100 to 999 nM

O=C(CNc1cccc(-c2cccs2)c1)N[C@@H]1CCCN(c2ncnc3[nH]ccc23)C1 [Example 305]
IC50: 100 to 999 nM

C[C@H](O)[C@@H](Nc1cc(F)cc(Cl)c1)C(=O)N[C@@H]1CCCN(c2ncnc3[nH]ccc23)C1 [Example 306]
IC50: 100 to 999 nM

C[C@@H](O)[C@@H](Nc1cc(F)cc(Cl)c1)C(=O)N[C@@H]1CCCN(c2ncnc3[nH]ccc23)C1 [Example 307]
IC50: 100 to 999 nM

O=C(CNc1cc(C(F)(F)F)cc(C(F)(F)F)c1)N[C@@H]1CCCN(c2ncnc3[nH]ccc23)C1 [Example 308]
IC50: 100 to 999 nM

COc1ccccc1NCC(=O)N[C@@H]1CCCN(c2ncnc3[nH]ccc23)C1 [Example 309]
IC50: 100 to 999 nM

CCOc1ccccc1NCC(=O)N[C@@H]1CCCN(c2ncnc3[nH]ccc23)C1 [Example 310]
IC50: 100 to 999 nM

COc1ccc(Cl)cc1NCC(=O)N[C@@H]1CCCN(c2ncnc3[nH]ccc23)C1 [Example 312]
IC50: 100 to 999 nM

Cc1ccc(Cl)c(NCC(=O)N[C@@H]2CCCN(c3ncnc4[nH]ccc34)C2)c1 [Example 313]
IC50: 100 to 999 nM

Nc1cc(N2CCC[C@@H](NC(=O)[C@H](Nc3cc(F)cc(Cl)c3)C3CC3)C2)ncn1 [Example 314]
IC50: 100 to 999 nM
